For series [1] the following is noted: 38 volunteers, single 1 mg dose of immediate release anagrelide (Agrylin); cited from earlier work.
For series [2] the following is noted: patients with ET or other myeloproliferative diseases; cited from earlier work.
Another series concerns cultured megakaryocytes. To be noted: cited from earlier work.
Another series relates to PDEIII. The following applies: cited from earlier work.
The conditions of series [3]: commercially available instant release formulation; cited from earlier work.
A short description of series [4]: Pre-formulation excipient compatibility by high sensitivity isothermal calorimetry. In kind it is physicochemical. To be noted: binary mixture 1:1, isothermal calorimetry, 24 hours, 30-80° C. As to the method:
Pre-formulation studies utilizing binary mixtures of the API with various excipients (ethylcellulose, Eudragit® RS and RL, Aquacoat® ECD30, ammonium oleate and Surelease® E7 1904) were conducted using a high sensitivity calorimeter in isothermal mode. Excipients were compared on their own and as mixtures with/without saturated sodium chloride solution present. In this technique, the heat changes in samples (API alone, excipient alone, API:excipient (1:1 ratio)) were monitored over 24 hours at a temperature range of 30-80° C. […] Improved dosage forms were formed by employing ethylcellulose in the excipient system and a mode of application including organic (ethanol) spray application due to the insolubility of ethylcellulose in water.

The nature of series [5]: Repeat-dose dose-escalation study of controlled release anagrelide: pharmacokinetics. Type of series: in vivo, human. To be noted: for AUC0-inf / AUC0-t / AUC0-τ / Cmax: dose-normalized to 0.2 mg. Here is the method: A placebo-controlled, double-blind repeat-dose, dose-escalation, sequential cohort study was conducted to evaluate the pharmacokinetics and pharmacodynamics of a controlled release composition of anagrelide as described herein in healthy subjects. An objective of the study was to explore the dose-response relationship for effects on platelet counts of a low dose range of a composition of anagrelide as described herein in healthy subjects. Other objectives of the study included determining the time course of effect and recovery of a range of doses of the composition including anagrelide on platelet count, determining the effects of a range of doses of the anagrelide compositions on platelet aggregation (collagen and ADP as agonists), determining the single and repeat dose pharmacokinetics of the anagrelide composition, and exploring the safety and tolerability of the compositions given as single doses and repeatedly for up to 21 days.
Eligible subjects were treated as follows: • Subjects were admitted to the unit on day 1 in the morning after an overnight fast and remain in the unit until 4 hours after morning dosing on day 5. • Subjects received a single dose of controlled release composition including anagrelide (or matching placebo) on day 1 in the morning. • Subjects commenced repeat dosing twice a day with the controlled release anagrelide composition on the morning of day 3 and remained in the unit until 4 hours after morning dose on day 5. • Subjects continued repeat twice a day dosing with the controlled release anagrelide composition as outpatients. Dosing continued until the morning of day 23. • All morning doses were taken after an overnight fast of at least 8 hour. • All evening doses were taken at least 2 hour after food consumption. No food was to be consumed for at least 1 hour after any dose (4 hours for the morning doses on day 1 and day 23). • On day 6-day 21, blood was taken pre-dosing of the controlled release anagrelide composition for full blood count (FBC) and platelet count (every day), trough PK (day 7, day 10, day 13, day 16 and day 19) and clinical chemistry (day 13). • Subjects were readmitted to the unit on the morning of day 22 and remained there until day 25 so that the PK of the final dose of the controlled release composition containing anagrelide on day 23 could be followed for 48 hours. • Subjects returned to the clinic daily from day 26 to day 31 for FBC and platelet counts. • Subjects returned for a follow up visit 14-16 days after the last dose of the controlled release composition containing anagrelide. Study Population:
A controlled release composition of anagrelide as described above in Table 4 of Example 1 (composition 2 fast release with seal coat) was used in unit doses of 100 μg and 300 μg, administered orally.
In this protocol, 4 cohorts of 200 μg, 300 μg, 400 μg and 600 μg doses of the controlled release composition including anagrelide administered twice daily were studied.
Platelet count, collagen-induced platelet aggregation, ADP induced platelet aggregation, template bleeding time, AUC0-t, AUC0-∞, Cmax, Cmin, t1/2, λZ and tmax were determined.
The starting dose of 200 μg (as a single dose on day 1 and then twice a day for 21 days) was chosen as a dose unlikely to cause any clinically significant reduction in platelet counts in healthy subjects. This starting dose was chosen because identification of the lowest dose of the controlled release composition containing anagrelide producing any effect on platelet counts was of interest. In each subsequent cohort the dose was increased by […] twice a day with the objective of identifying the dose range that lowers platelet counts by 30-50%. With daily monitoring of platelet counts, this escalation was determined to allow identification of the effective dose range of the controlled release composition of anagrelide without placing the subjects at significant clinical risk.

As to `O=C1NC2=Nc3ccc(Cl)c(Cl)c3CN2C1O` (centres unmarked) [3-hydroxy anagrelide, 6,7-dichloro-3-hydroxy-1,5-dihydro-imidazo[2,1-b]quinazolin-2-one], in series [1], the “AUC0-inf ± RSD (%)” value is 18.0 ± 35.6 ng·h/mL, the “Cmax ± RSD (%)” value is 5.47 ± 56.9 ng/mL, the “Tmax ± RSD (%)” value is 1.28 ± 58.1 h and the “t1/2 ± RSD (%)” value is listed as 2.5 ± 28.7 h. In addition, in series [2], the Observed half-life was 3.9 h and the “Share of all drug-related products in the plasma” value is “about 45%”. The “In vitro effects on megakaryocytopoiesis relative to anagrelide” value in the series with cultured megakaryocytes was “equipotent”. The “Potency as PDEIII inhibitor relative to anagrelide” value in the series with PDEIII is given as 40 times. The Terminal half-life in series [3] is 3.9 h.

Take `Cl.O.O=C1CN2Cc3c(ccc(Cl)c3Cl)N=C2N1` [API, 6,7-dichloro-1,5-dihydroimidazo-[2,1-b]quinazolin-2(3H)-one mono-hydrochloride monohydrate]: in series [4], the “Compatibility with Aquacoat” value was “not conclusive as to compatibility”; the “Compatibility with Eudragit (RS and RL)” value was “showed evidence of incompatibility”; the “Compatibility with Surelease” value is on record as “showed evidence of incompatibility”; the “Compatibility with ammonium oleate” value is listed as “showed evidence of incompatibility”. Besides, in series [4], the Compatibility with ethylcellulose result is on record as “showed evidence of compatibility”.

As usually defined, the Cmax is the highest concentration seen after dosing. For the compound `O=C1NC2=Nc3ccc(Cl)c(Cl)c3CN2C1O` (centres unmarked) [3-Hydroxy-Anagrelide], in series [5] (cohort 1 (0.2 mg), day 1), the Kel amounted to 0.0985 h⁻¹, the t1/2 was 7.78 h, the AUC0-inf stood at 4.6957 ng·h/mL and the AUC0-t is 4.04622 ng·h/mL. Also, in series [5] (cohort 1 (0.2 mg), day 1), the AUC0-τ turned out to be 4.17916 ng·h/mL, the Cmax was determined as 0.61542 ng/mL and the “Tmax (median)” value was 4.01 h. In series [5] (cohort 1 (0.2 mg), day 23), this compound had a Kel of 0.0608 h⁻¹, a t1/2 of 12.69 h, an AUC0-inf of 7.27841 ng·h/mL and an AUC0-τ of 5.66247 ng·h/mL. For the same compound, in series [5] (cohort 1 (0.2 mg), day 23), the Cmax was found to be 0.75569 ng/mL and the “Tmax (median)” value is recorded as 3.00 h. In series [5] (cohort 2 (0.4 mg), day 1), this compound yielded a Kel of 0.0641 h⁻¹, a t1/2 of 11.64 h, an AUC0-inf of 3.98674 ng·h/mL and an AUC0-t of 3.36645 ng·h/mL. Also, in series [5] (cohort 2 (0.4 mg), day 1), the AUC0-τ is 3.04925 ng·h/mL, the Cmax is 0.35828 ng/mL and the “Tmax (median)” value was found to be 3.51 h. In series [5] (cohort 2 (0.4 mg), day 23), this compound displayed a Kel of 0.0527 h⁻¹, a t1/2 of 13.77 h, an AUC0-inf of 6.18331 ng·h/mL and an AUC0-τ of 4.8106 ng·h/mL. Moreover, in series [5] (cohort 2 (0.4 mg), day 23), the Cmax amounted to 0.5158 ng/mL and the “Tmax (median)” value was determined as 3.02 h. For the same compound, in series [5] (cohort 3 (0.6 mg), day 1), the Kel stood at 0.0673 h⁻¹, the t1/2 is reported as 12.87 h, the AUC0-inf was 4.6058 ng·h/mL and the AUC0-t came out at 3.93912 ng·h/mL. Also, in series [5] (cohort 3 (0.6 mg), day 1), the AUC0-τ was found to be 3.50858 ng·h/mL, the Cmax was determined as 0.44422 ng/mL and the “Tmax (median)” value is 4.00 h. Moreover, in series [5] (cohort 4 (0.3 mg), day 1), the Kel was found to be 0.0596 h⁻¹, the t1/2 is 15.30 h, the AUC0-inf was found to be 4.46186 ng·h/mL and the AUC0-t stood at 3.40306 ng·h/mL. Further, in series [5] (cohort 4 (0.3 mg), day 1), the AUC0-τ was 2.99087 ng·h/mL, the Cmax turned out to be 0.40142 ng/mL and the “Tmax (median)” value amounted to 3.61 h. In series [5] (cohort 4 (0.3 mg), day 23), this compound had a Kel of 0.0492 h⁻¹, a t1/2 of 15.13 h, an AUC0-inf of 5.45894 ng·h/mL and an AUC0-τ of 4.28075 ng·h/mL. In series [5] (cohort 4 (0.3 mg), day 23), the Cmax came out at 0.45837 ng/mL and the “Tmax (median)” value was 3.00 h.

With `NC1=Nc2ccc(Cl)c(Cl)c2CN1` [RL603, 2-amino-5,6-dichloro-3,4-dihydroquinazoline], in series [1], the “AUC0-inf ± RSD (%)” value was 16.0 ± 32.3 ng·h/mL, the “Cmax ± RSD (%)” value is given as 1.36 ± 34.0 ng/mL, the “Tmax ± RSD (%)” value is given as 2.5 ± 58.5 h and the “t1/2 ± RSD (%)” value is listed as 7.8 ± 31.1 h. Also, in series [2], the Observed half-life is 8.7 h and the “Share of all drug-related products in the plasma” value is listed as “about 33%”. For the same compound, the “Activity on TPO-induced stimulation of megakaryocytes / megakaryocytopoiesis” value with cultured megakaryocytes is “essentially inactive”. The “Activity against PDE III” value in the series with PDEIII was “essentially inactive”.

The values are drawn from US9750698B2, “Controlled release compositions of agents that reduce circulating levels of platelets and methods therefor” (BioVascular, Inc., priority 2008, dated 2017).
